One block for each compound: values may come before it.
How the values were obtained:
RPMI 8402 [1] = test: Cytotoxicity using camptothecin-resistant variant of RPM18402 (CPT-K5) possessing functional, but mutant TOP-1; assay type: cell-based; conditions: Homo sapiens
RPMI 8402 [2] = test: Cytotoxicity against human lymphoblast tumor cell line RPM18402; assay type: functional, cell-based
[3] = target: DNA topoisomerase II (Homo sapiens) (UniProt P11388+Q02880); test: TOP-2 mediated DNA cleavage measured as effective concentration relative to VM26; assay type: functional
[4] = target: T1, DNA topoisomerase 1 (Homo sapiens) (UniProt P11387); test: TOP-1 mediated DNA cleavage measured as effective concentration relative to topotecan = 1; assay type: functional
T1 sequence (whole entry): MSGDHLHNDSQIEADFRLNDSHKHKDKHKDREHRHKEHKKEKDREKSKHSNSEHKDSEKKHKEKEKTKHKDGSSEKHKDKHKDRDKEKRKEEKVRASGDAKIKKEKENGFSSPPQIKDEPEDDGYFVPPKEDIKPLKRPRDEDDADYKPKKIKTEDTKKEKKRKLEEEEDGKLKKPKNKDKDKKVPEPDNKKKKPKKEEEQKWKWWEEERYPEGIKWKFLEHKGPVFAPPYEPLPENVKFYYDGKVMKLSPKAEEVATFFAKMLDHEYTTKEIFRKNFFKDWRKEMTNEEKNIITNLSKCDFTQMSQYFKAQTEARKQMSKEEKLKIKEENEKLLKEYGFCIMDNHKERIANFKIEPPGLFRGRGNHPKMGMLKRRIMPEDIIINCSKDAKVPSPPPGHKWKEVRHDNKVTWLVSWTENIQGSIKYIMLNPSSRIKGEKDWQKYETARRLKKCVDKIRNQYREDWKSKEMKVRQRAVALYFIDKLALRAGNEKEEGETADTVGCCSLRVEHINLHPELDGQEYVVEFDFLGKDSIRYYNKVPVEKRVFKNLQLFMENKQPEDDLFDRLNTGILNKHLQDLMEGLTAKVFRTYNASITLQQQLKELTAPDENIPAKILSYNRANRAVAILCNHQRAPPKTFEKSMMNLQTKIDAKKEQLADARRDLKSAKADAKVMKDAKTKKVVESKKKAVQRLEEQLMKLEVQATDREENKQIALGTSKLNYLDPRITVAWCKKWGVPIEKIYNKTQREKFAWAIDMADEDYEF

Mus musculus [5] = test: In vivo antitumor activity in NCR-nude-nude mice inoculated with 1.2 E6 -1.5 E6 MDA-MB-435 cells after day 31 with an average dose of 0.78 mg/mouse (po); assay type: functional
Mus musculus [6] = test: In vivo antitumor activity in NCR-nude-nude mice inoculated with 1.2 E6 -1.5 E6 MDA-MB-435 cells after day 13 with an average dose of 0.73 mg/mouse (ip); assay type: functional
Mus musculus [7] = test: In vivo antitumor activity in NCR-nude-nude mice inoculated with 1.2 E6 -1.5 E6 MDA-MB-435 cells after day 21 with an average dose of 0.73 mg/mouse (ip); assay type: functional
Mus musculus [8] = test: In vivo antitumor activity in NCR-nude-nude mice inoculated with 1.2 E6 -1.5 E6 MDA-MB-435 cells after day 31 with an average dose of 0.73 mg/mouse (ip); assay type: functional
Mus musculus [9] = test: In vivo antitumor activity in NCR-nude-nude mice inoculated with 1.2 E6 -1.5 E6 MDA-MB-435 cells after day 13 with an average dose of 0.78 mg/mouse (po); assay type: functional
Mus musculus [10] = test: In vivo antitumor activity in NCR-nude-nude mice inoculated with 1.2 E6 -1.5 E6 MDA-MB-435 cells after day 7 with an average dose of 0.78 mg/mouse (po); assay type: functional
Mus musculus [11] = test: In vivo antitumor activity in NCR-nude-nude mice inoculated with 1.2 E6 -1.5 E6 MDA-MB-435 cells after day 21 with an average dose of 0.78 mg/mouse(po); assay type: functional
Mus musculus [12] = test: In vivo antitumor activity in NCR-nude-nude mice inoculated with 1.2 E6 -1.5 E6 MDA-MB-435 cells after day 7 with an average dose of 0.73 mg/mouse (ip); assay type: functional
Mus musculus [13] = test: In vivo antitumor activity in NCR-nude-nude mice inoculated with 1.2 E6 -1.5 E6 MDA-MB-435 cells; after day 21 with an average dose of 13.88 mg/mouse (ip); assay type: functional
Mus musculus [14] = test: In vivo antitumor activity in NCR-nude-nude mice inoculated with 1.2 E6 -1.5 E6 MDA-MB-435 cells; after day 7 with an average dose of 13.88 mg/mouse (ip); assay type: functional
Mus musculus [15] = test: In vivo antitumor activity in NCR-nude-nude mice inoculated with 1.2 E6 -1.5 E6 MDA-MB-435 cells; after day 31 with an average dose of 13.88 mg/mouse (ip); assay type: functional
Mus musculus [16] = test: In vivo antitumor activity in NCR-nude-nude mice inoculated with 1.2 E6 -1.5 E6 MDA-MB-435 cells; after day 13 with an average dose of 13.88 mg/mouse (ip); assay type: functional
Mus musculus [17] = test: In vivo antitumor activity in NCR-nude-nude mice inoculated with 1.2 E6 -1.5 E6 MDA-MB-435 cells; after day 13 with an average dose of 0.22 mg/mouse (ip); assay type: functional
Mus musculus [18] = test: In vivo antitumor activity in NCR-nude-nude mice inoculated with 1.2 E6 -1.5 E6 MDA-MB-435 cells; after day 13 with an average dose of 0.27 mg/mouse (po); assay type: functional
Mus musculus [19] = test: In vivo antitumor activity in NCR-nude-nude mice inoculated with 1.2 E6 -1.5 E6 MDA-MB-435 cells; after day 21 with an average dose of 0.22 mg/mouse (ip); assay type: functional
Mus musculus [20] = test: In vivo antitumor activity in NCR-nude-nude mice inoculated with 1.2 E6 -1.5 E6 MDA-MB-435 cells; after day 31 with an average dose of 0.27 mg/mouse (po); assay type: functional
Mus musculus [21] = test: In vivo antitumor activity in NCR-nude-nude mice inoculated with 1.2 E6 -1.5 E6 MDA-MB-435 cells; after day 21 with an average dose of 0.27 mg/mouse (po); assay type: functional
Mus musculus [22] = test: In vivo antitumor activity in NCR-nude-nude mice inoculated with 1.2 E6 -1.5 E6 MDA-MB-435 cells; after day 7 with an average dose of 0.27 mg/mouse (po); assay type: functional
Mus musculus [23] = test: In vivo antitumor activity in NCR-nude-nude mice inoculated with 1.2 E6 -1.5 E6 MDA-MB-435 cells; after day 31 with an average dose of 0.22 mg/mouse (ip); assay type: functional
Mus musculus [24] = test: In vivo antitumor activity in NCR-nude-nude mice inoculated with 1.2 E6 -1.5 E6 MDA-MB-435 cells; after day 7 with an average dose of 0.22 mg/mouse (ip); assay type: functional

REC [3]: > 100 | REC [4]: > 1000
SMILES: COc1cc2c(=O)n(C(C)CN(C)C)c3c4cc5c(cc4ncc3c2cc1OC)OCO5 (configuration not stated)
IC50 (RPMI 8402 [1]): 3400 nM | IC50 (RPMI 8402 [2]): 570 nM

REC [3]: > 100 | REC [4]: 0.3
SMILES: COc1cc2c(=O)n(CCN(C)C)c3c4cc5c(cc4nnc3c2cc1OC)OCO5
Average tumor volume (Mus musculus [17]): 211 mm**3 | Average tumor volume (Mus musculus [18]): 183 mm**3 | Average tumor volume (Mus musculus [19]): 252 mm**3 | Average tumor volume (Mus musculus [20]): 200 mm**3 | Average tumor volume (Mus musculus [21]): 207 mm**3 | IC50 (RPMI 8402 [1]): 600 nM | IC50 (RPMI 8402 [2]): 1 nM | Average tumor volume (Mus musculus [22]): 154 mm**3 | Average tumor volume (Mus musculus [23]): 403 mm**3 | Average tumor volume (Mus musculus [24]): 167 mm**3

REC [3]: > 100 | REC [4]: > 1000
SMILES: COc1cc([C@@H]2c3cc4c(cc3[C@@H](O[C@@H]3O[C@@H]5CO[C@@H](c6cccs6)O[C@H]5[C@H](O)[C@H]3O)[C@H]3COC(=O)[C@H]23)OCO4)cc(OC)c1O [TENIPOSIDE]
IC50 (RPMI 8402 [1]): 280 nM | IC50 (RPMI 8402 [2]): 220 nM

REC [3]: > 100 | REC [4]: 200
SMILES: COc1cc2c(=O)n(CC3CCCO3)c3c4cc5c(cc4ncc3c2cc1OC)OCO5 (configuration not stated)
IC50 (RPMI 8402 [1]): > 10000 nM | IC50 (RPMI 8402 [2]): 150 nM

REC [3]: > 100 | REC [4]: 1000
SMILES: COc1cc2c(=O)n(C(C)CN(C)C)c3c4cc5c(cc4nnc3c2cc1OC)OCO5 (configuration not stated)
IC50 (RPMI 8402 [1]): 3600 nM | IC50 (RPMI 8402 [2]): 260 nM

Continued, compound first:

SMILES: COc1cc2c(=O)n(CCN(C)C)c3c4cc5c(cc4ncc3c2cc1OC)OCO5
Average tumor volume (Mus musculus [5]): 62 mm**3 | Average tumor volume (Mus musculus [6]): 84 mm**3 | Average tumor volume (Mus musculus [7]): 65 mm**3 | IC50 (RPMI 8402 [1]): 900 nM | Average tumor volume (Mus musculus [8]): 40 mm**3 | IC50 (RPMI 8402 [2]): 2 nM | REC [3]: > 100 | Average tumor volume (Mus musculus [9]): 148 mm**3 | Average tumor volume (Mus musculus [10]): 159 mm**3 | Average tumor volume (Mus musculus [11]): 99 mm**3 | Average tumor volume (Mus musculus [12]): 123 mm**3

SMILES: CCc1c2c(nc3ccc(OC(=O)N4CCC(N5CCCCC5)CC4)cc13)-c1cc3c(c(=O)n1C2)CCC(=O)C3(O)CC (configuration not stated)
Average tumor volume (Mus musculus [13]): 36 mm**3 | Average tumor volume (Mus musculus [14]): 118 mm**3 | IC50 (RPMI 8402 [1]): > 10000 nM | REC [3]: > 100 | Average tumor volume (Mus musculus [15]): 11 mm**3 | Average tumor volume (Mus musculus [16]): 116 mm**3

SMILES: CC[C@@]1(O)C(=O)OCc2c1cc1n(c2=O)Cc2cc3c(CN(C)C)c(O)ccc3nc2-1 [TOPOTECAN]
IC50 (RPMI 8402 [1]): > 10000 nM | IC50 (RPMI 8402 [2]): 12 nM | REC [3]: > 100 | REC [4]: 1

SMILES: COc1cc2c(=O)n(CC3CCCO3)c3c4cc5c(cc4nnc3c2cc1OC)OCO5 (configuration not stated)
IC50 (RPMI 8402 [1]): > 10000 nM | IC50 (RPMI 8402 [2]): 10 nM | REC [3]: > 100 | REC [4]: 30

SMILES: CCCCn1c(=O)c2cc(OC)c(OC)cc2c2nnc3cc4c(cc3c21)OCO4
IC50 (RPMI 8402 [1]): 10000 nM | IC50 (RPMI 8402 [2]): 4 nM | REC [3]: > 100 | REC [4]: 1

From ChEMBL document CHEMBL1134974, “Diaza- and triazachrysenes: potent topoisomerase-targeting agents with exceptional antitumor activity against the human tumor xenograft, MDA-MB-435” (Bioorg Med Chem Lett, 2002)
